Reference: ChEMBL document CHEMBL4033774, “Class I HDAC Inhibitors: Potential New Epigenetic Therapeutics for Alcohol Use Disorder (AUD)” (J Med Chem, 2018)
pIC50: −log10 of the molar value.

Columns and labels:
[1] = molecular target: T1, Histone deacetylase 1 (Homo sapiens, UniProt Q13547); assay: Inhibition of human full length C-terminal His/FLAG-tagged HDAC1 expressed in baculovirus infected Sf9 insect cells after 1 hr in presence of acetylated lysine substrate by fluorescence assay
[2] = molecular target: T2, Histone deacetylase 2 (Homo sapiens, UniProt Q92769); assay: Inhibition of human full length C-terminal His-tagged HDAC2 expressed in baculovirus infected Sf9 insect cells after 1 hr in presence of acetylated lysine substrate by fluorescence assay
[3] = molecular target: T3, Histone deacetylase 3/Nuclear receptor corepressor 2 (HDAC3/NCoR2) (Homo sapiens, UniProt O15379); assay: Inhibition of human full length C-terminal His-tagged HDAC3/N-terminal GST-tagged human NCOR2 co-expressed in baculovirus infected Sf9 insect cells after 1 hr in presence of acetylated lysine substrate by fluorescence assay
[4] = organism: Homo sapiens; assay: Selectivity ratio of IC50 for human full length C-terminal His/FLAG-tagged HDAC1 expressed in baculovirus infected Sf9 insect cells to IC50 for human full length C-terminal His-tagged HDAC2 expressed in baculovirus infected Sf9 insect cells
[5] = molecular target: T2, Histone deacetylase 2; assay: Inhibition of human full length C-terminal His/FLAG-tagged HDAC2 expressed in baculovirus infected Sf9 cells preincubated for 3 hrs followed by fluorophore conjugated MAZ1600 substrate addition measured every 5 mins by fluorescence assay
[6] = molecular target: T1, Histone deacetylase 1; assay: Inhibition of recombinant full length human C-terminal FLAG/His-tagged HDAC1 expressed in baculovirus infected sf9 cells preincubated for 3 hrs followed by fluorophore conjugated MAZ1600 substrate addition measured every 5 mins by fluorescence assay
[7] = molecular target: T3, Histone deacetylase 3/Nuclear receptor corepressor 2 (HDAC3/NCoR2); assay: Inhibition of human full length C-terminal His-tagged HDAC3/N-terminal GST-tagged human NCOR2 (395 to 489 residues) co-expressed in baculovirus infected Sf9 insect cells preincubated for 3 hrs followed by fluorophore conjugated MAZ1600 substrate addition measured every 5 mins by fluorescence assay

T3 sequence (O15379 whole entry): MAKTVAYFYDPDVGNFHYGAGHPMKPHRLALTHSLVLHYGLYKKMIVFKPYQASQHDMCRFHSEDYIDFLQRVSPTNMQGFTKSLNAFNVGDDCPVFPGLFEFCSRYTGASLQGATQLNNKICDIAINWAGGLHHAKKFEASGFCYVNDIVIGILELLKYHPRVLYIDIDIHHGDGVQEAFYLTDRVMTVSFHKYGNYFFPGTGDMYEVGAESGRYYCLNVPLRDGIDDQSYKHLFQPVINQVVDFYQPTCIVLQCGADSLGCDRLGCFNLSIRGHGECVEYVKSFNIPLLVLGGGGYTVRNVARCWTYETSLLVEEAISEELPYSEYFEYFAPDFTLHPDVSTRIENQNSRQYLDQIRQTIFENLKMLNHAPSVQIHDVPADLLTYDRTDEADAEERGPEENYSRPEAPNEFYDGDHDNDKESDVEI
T3 sequence (Q9Y618 whole entry, further chain): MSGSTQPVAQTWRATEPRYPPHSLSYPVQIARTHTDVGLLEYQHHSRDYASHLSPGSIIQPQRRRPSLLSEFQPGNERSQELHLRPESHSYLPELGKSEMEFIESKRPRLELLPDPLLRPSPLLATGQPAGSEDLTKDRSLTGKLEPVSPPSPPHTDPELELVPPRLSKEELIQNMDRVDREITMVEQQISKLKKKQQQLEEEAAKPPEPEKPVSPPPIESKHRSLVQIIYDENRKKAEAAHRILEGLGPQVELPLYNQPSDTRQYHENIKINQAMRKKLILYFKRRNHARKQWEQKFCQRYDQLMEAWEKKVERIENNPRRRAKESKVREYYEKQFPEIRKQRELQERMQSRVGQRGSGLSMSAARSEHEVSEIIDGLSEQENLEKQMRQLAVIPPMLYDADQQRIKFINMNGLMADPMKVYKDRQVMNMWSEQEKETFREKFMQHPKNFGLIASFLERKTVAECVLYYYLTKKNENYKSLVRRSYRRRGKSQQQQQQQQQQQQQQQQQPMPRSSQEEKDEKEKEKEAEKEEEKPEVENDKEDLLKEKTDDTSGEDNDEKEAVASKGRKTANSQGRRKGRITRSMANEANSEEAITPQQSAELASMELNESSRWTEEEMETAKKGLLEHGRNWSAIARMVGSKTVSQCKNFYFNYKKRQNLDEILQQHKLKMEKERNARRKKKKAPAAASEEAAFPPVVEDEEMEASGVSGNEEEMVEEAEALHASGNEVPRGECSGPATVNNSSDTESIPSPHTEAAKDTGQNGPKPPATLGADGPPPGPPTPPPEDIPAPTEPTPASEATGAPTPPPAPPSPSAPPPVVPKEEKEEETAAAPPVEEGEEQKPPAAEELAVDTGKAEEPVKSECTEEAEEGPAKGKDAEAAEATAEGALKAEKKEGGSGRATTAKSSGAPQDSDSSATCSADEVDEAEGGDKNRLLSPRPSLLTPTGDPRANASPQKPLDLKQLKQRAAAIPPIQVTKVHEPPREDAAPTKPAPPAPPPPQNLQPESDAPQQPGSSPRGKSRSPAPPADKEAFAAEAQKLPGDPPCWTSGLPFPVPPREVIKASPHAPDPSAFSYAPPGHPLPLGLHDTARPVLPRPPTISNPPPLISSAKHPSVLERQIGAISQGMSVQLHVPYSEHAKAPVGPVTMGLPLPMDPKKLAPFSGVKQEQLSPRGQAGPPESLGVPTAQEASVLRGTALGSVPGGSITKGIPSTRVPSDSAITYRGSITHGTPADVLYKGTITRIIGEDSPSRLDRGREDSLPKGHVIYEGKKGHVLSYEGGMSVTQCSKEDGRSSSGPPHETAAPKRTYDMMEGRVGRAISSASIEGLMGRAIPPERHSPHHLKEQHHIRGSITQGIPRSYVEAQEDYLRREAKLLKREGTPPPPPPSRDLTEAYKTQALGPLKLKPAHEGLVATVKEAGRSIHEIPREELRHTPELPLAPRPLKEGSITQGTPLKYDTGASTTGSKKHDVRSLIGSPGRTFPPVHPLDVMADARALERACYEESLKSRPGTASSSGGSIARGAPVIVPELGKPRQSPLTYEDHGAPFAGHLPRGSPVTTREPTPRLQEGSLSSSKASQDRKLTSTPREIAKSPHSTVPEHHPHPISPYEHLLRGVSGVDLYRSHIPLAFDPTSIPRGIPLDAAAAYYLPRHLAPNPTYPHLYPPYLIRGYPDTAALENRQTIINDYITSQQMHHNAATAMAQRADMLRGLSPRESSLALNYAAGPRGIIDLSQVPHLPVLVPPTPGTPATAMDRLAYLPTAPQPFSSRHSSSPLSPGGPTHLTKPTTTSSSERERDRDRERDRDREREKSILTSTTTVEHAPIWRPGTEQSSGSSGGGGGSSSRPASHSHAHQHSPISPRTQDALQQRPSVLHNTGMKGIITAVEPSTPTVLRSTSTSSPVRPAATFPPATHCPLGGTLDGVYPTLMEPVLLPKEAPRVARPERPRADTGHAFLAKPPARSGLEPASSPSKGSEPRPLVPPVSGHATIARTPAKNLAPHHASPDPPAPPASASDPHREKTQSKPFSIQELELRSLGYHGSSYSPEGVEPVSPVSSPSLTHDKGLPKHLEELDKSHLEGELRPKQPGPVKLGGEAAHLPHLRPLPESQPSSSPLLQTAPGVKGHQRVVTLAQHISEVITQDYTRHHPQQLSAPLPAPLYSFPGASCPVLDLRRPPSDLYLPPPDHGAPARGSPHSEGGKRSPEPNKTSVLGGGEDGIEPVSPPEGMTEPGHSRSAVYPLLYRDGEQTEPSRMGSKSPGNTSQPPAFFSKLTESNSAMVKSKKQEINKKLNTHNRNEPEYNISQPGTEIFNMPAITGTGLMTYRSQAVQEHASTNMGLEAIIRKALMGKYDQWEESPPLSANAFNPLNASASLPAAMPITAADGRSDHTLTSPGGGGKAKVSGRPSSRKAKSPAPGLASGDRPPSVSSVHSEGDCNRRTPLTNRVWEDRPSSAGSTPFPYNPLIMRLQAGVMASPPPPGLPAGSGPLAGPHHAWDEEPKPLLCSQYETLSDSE
T1 sequence (Q13547 whole entry): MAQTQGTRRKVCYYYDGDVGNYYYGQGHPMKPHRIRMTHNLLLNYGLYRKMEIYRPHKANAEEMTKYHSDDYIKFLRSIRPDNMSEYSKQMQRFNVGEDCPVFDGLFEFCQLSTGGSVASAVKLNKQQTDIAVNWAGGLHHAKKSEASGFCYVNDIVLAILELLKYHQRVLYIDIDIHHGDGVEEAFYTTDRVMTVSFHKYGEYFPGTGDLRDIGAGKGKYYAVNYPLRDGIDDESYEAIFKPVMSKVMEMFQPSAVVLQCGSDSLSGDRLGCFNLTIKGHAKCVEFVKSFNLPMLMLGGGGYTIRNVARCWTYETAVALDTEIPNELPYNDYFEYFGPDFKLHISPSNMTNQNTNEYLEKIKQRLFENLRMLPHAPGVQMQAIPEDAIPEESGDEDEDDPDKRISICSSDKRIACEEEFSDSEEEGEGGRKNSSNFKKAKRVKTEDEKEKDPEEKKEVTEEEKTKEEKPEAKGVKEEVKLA
T2 sequence (Q92769 whole entry): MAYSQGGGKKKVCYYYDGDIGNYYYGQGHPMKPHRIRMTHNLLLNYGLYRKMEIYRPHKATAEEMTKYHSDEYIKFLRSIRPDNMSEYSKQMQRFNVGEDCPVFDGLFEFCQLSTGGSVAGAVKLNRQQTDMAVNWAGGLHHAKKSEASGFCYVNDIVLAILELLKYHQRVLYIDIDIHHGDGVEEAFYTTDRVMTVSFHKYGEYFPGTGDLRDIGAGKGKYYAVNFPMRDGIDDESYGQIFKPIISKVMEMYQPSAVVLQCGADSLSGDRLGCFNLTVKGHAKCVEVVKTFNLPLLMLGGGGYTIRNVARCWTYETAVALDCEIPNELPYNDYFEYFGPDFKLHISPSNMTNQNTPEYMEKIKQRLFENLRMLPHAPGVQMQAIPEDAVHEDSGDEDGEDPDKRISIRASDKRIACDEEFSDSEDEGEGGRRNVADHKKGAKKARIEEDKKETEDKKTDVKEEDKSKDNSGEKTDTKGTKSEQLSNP

Compound	pIC50 [1]	pIC50 [2]	pIC50 [3]	Ratio IC50 [4]	pIC50 [5]	pIC50 [6]	pIC50 [7]
O=C(/C=C(\CO)c1ccccc1)c1ccccc1	5.56	6.77	4.30	20			
C[C@H](CO)N1C[C@H](C)[C@H](CN(C)Cc2ccc(C(=O)Nc3ccccc3N)cc2)Oc2ccc(N(C)C)cc2CC1=O					6.25	7.16	5.89
